According to patent US8802149B2, “Systems and processes for spray drying hydrophobic and hydrophilic components” (Novartis Pharma AG, priority 1996, dated 2014):

Assay: Solubility of drug and excipient in common organic solvent or cosolvent system
Format: physicochemical
Details: for solubility in Acetone (50%)/Water (50%) (by volume): solvent Acetone (50%)/Water (50%) by volume
Source text: According to the third aspect of the present invention. an organic solvent or cosolvent is selected in which both the hydrophobic drug or other component and the hydrophilic excipient or other component may be dissolved. […] The solvent must further be selected to leave minimum residual solvent in the spray dried process and/or be capable of being adequately removed from the spray dried product. The particular organic solvent or cosolvent selected will depend on the nature of the hydrophobic drug and the hydrophilic excipient.
Each of these formulations has been spray dried and tested as described in further detail in the Experimental section hereinafter.

## CCCC1O[C@@H]2C[C@H]3[C@@H]4CCC5=CC(=O)C=C[C@]5(C)[C@H]4[C@@H](O)C[C@]3(C)[C@]2(C(=O)CO)O1 (some centres unmarked) [Budesonide]
  solubility in Acetone (50%)/Water (50%) (by volume): (adequate solubility)
Solvent DMSO (33%)/Acetone (67%) by volume
  solubility in DMSO (33%)/Acetone (67%) (by volume): (good solubility)
Solvent Ethanol
  solubility in Ethanol: (adequate solubility)
Solvent Methanol
  solubility in Methanol: (good solubility)

## OC[C@@H](O)[C@@H](O)[C@H](O)[C@H](O)CO [Mannitol]
  solubility in Acetone (50%)/Water (50%) (by volume): (adequate solubility)
